Experimental data from patent US10828316B2, “Method of treating bacterial infections” (priority 2016, dated 2020).
Converted amounts (≈) assume the structure as drawn. Like-named read-outs stand apart in the source and are kept apart here.

Columns and labels:
E. coli EN002 = assay: MIC; type: cell-based, Escherichia coli
A. baumannii EN017 = assay: MIC; type: cell-based, Acinetobacter baumannii
K. pneumoniae EN0140 = assay: MIC; type: cell-based; settings: in FdUrd+trimethoprim+uridine combination
S. flexneri APV00907 = assay: MIC; type: cell-based; settings: S. flexneri APV00907
K. pneumoniae EN0233 = assay: MIC; type: cell-based
P. aeruginosa EN015 = assay: MIC; type: cell-based, Pseudomonas aeruginosa
[1] = system: Helicobacter pylori APV00918; assay: MIC; type: cell-based; settings: in FdUrd+trimethoprim+uridine combination
Source text: (§1) Inhibition of Heliobacter is important in view of increasing resistance and its association to gastric cancer.

[2] = system: Helicobacter pylori ATTC43504; assay: MIC; type: cell-based
Source text: as §1

A. baumannii EN016 = assay: MIC; type: cell-based, Acinetobacter baumannii; settings: in FdUrd+trimethoprim+uridine combination
E. aerogenes EN0461 = assay: MIC; type: cell-based, Enterobacter aerogenes
P. aeruginosa EN0422 = assay: MIC; type: cell-based, Pseudomonas aeruginosa; settings: in FdUrd+trimethoprim+uridine combination
S. sonnei APV00908 = assay: MIC; type: cell-based; settings: S. sonnei APV00908
E. coli EN013 = assay: MIC; type: cell-based, Escherichia coli
K. pneumoniae EN0436 = assay: MIC; type: cell-based
K. pneumoniae EN0006 = assay: MIC; type: cell-based
A. baumannii EN0007 = assay: MIC; type: cell-based, A. baumanii
E. coli EN012 = assay: MIC; type: cell-based, Escherichia coli
S. epidermidis EN0456 = assay: MIC; type: cell-based, Staphylococcus epidermidis
E. coli B EN0458 = assay: MIC; type: cell-based, Escherichia coli B
K. pneumoniae EN0401 = assay: MIC; type: cell-based
K. pneumoniae EN0142 = assay: MIC; type: cell-based; settings: in FdUrd+trimethoprim+uridine combination
K. oxytoca EN0392 = assay: MIC; type: cell-based, Klebsiella oxytoca
E. coli EN0137 = assay: MIC; type: cell-based; settings: in FdUrd+trimethoprim+uridine combination
K. pneumoniae EN0463 = assay: MIC; type: cell-based, Klebsiella pneumoniae
K. pneumoniae EN0145 = assay: MIC; type: cell-based; settings: in FdUrd+trimethoprim+uridine combination
K. pneumoniae EN011 = assay: MIC; type: cell-based, Klebsiella pneumoniae
K. pneumoniae EN010 = assay: MIC; type: cell-based, Klebsiella pneumoniae
S. flexneri APV00906 = assay: MIC; type: cell-based; settings: S. flexneri APV00906
M. luteus EN0455 = assay: MIC; type: cell-based, Micrococcus luteus; settings: in FdUrd+trimethoprim+uridine combination
K. pneumoniae EN0244 = assay: MIC; type: cell-based; settings: in FdUrd+trimethoprim+uridine combination
E. coli EN001 = assay: MIC; type: cell-based, Escherichia coli
K. pneumoniae EN006 = assay: MIC; type: cell-based, Klebsiella pneumoniae
S. typhimurium EN0466 = assay: MIC; type: cell-based, Salmonella typhimurium
P. mirabilis ST19 EN0445 = assay: MIC; type: cell-based, Proteus mirabilis; settings: in FdUrd+trimethoprim+uridine combination
P. aeruginosa EN0004 = assay: MIC; type: cell-based
E. coli EN003 = assay: MIC; type: cell-based, Escherichia coli; settings: in FdUrd+trimethoprim+uridine combination
E. coli EN0001 = assay: MIC; type: cell-based
E. coli ATCC 25922 = assay: MIC, in vitro sensitivity of the strain used in vivo; settings: Escherichia coli
[3] = in FdUrd+trimethoprim+uridine combination
[4] = Combination 2 (same mixed with thymidine)
[5] = in didanosine+trimethoprim+uridine combination
[6] = in AZT+trimethoprim+uridine combination
[7] = Combination 1 (AZT+trimethoprim+uridine)

O=c1[nH]c(=O)n([C@H]2C[C@H](O)[C@@H](CO)O2)cc1F [FdUrd]
MIC (E. coli EN002; [3]): 0.032 µg/mL
MIC (A. baumannii EN017; A. baumannii EN017, in FdUrd+trimethoprim+uridine combination): 0.5 µg/mL
MIC (K. pneumoniae EN0140): >4 µg/mL
MIC (S. flexneri APV00907; [3]): >4 µg/mL
MIC (K. pneumoniae EN0233; [3]): 0.5 µg/mL
MIC (P. aeruginosa EN015; P. aeruginosa EN015, in FdUrd+trimethoprim+uridine combination): 1 µg/mL
MIC [1]: 0.06 µg/mL
MIC [2, 3]: 0.06 µg/mL
MIC (A. baumannii EN016): 4 µg/mL
MIC (E. aerogenes EN0461; [3]): 1 µg/mL
MIC (P. aeruginosa EN0422): >4 µg/mL
MIC (S. sonnei APV00908; [3]): >4 µg/mL
MIC (E. coli EN013; E. coli EN013, in FdUrd+trimethoprim+uridine combination): 0.016 µg/mL
MIC (K. pneumoniae EN0436; [3]): 0.25 µg/mL
MIC (K. pneumoniae EN0006; [3]): 0.5 µg/mL
MIC (A. baumannii EN0007; [3]): >4 µg/mL
MIC (E. coli EN012; [3]): 0.032 µg/mL
MIC (S. epidermidis EN0456; [3]): <0.008 µg/mL
MIC (E. coli B EN0458; [3]): 0.032 µg/mL
MIC (K. pneumoniae EN0401; [3]): >4 µg/mL
MIC (K. pneumoniae EN0142): 0.125 µg/mL
MIC (K. oxytoca EN0392; [3]): 0.125 µg/mL
MIC (E. coli EN0137): >4 µg/mL
MIC (K. pneumoniae EN0463; [3]): 0.25 µg/mL
MIC (K. pneumoniae EN0145): >4 µg/mL
MIC (K. pneumoniae EN011; K. pneumoniae EN011, in FdUrd+trimethoprim+uridine combination): 0.064 µg/mL
MIC (K. pneumoniae EN010; [3]): 0.5 µg/mL
MIC (S. flexneri APV00906; [3]): >4 µg/mL
MIC (M. luteus EN0455): 2 µg/mL
MIC (K. pneumoniae EN0244): >4 µg/mL
MIC (E. coli EN001; [3]): 0.125 µg/mL
MIC (K. pneumoniae EN006; [3]): 0.5 µg/mL
MIC (S. typhimurium EN0466; [3]): 0.125 µg/mL
MIC (P. mirabilis ST19 EN0445): 0.5 µg/mL
MIC (P. aeruginosa EN0004; [3]): >4 µg/mL
MIC (E. coli EN003): 0.016 µg/mL
MIC (E. coli EN0001; [3]): 0.25 µg/mL

COc1cc(Cc2cnc(N)nc2N)cc(OC)c1OC [Trimethoprim, trimethoprim]
MIC (E. coli EN002; [4]): 0.125 µg/mL
MIC (E. coli EN002; [3]): 0.064 µg/mL
MIC (E. coli EN002; [5]): 0.064 µg/mL
MIC (A. baumannii EN017; Acinetobacter baumannii, EN017, A. baumannii EN017, Combination 1 (AZT+trimethoprim+uridine)): 1 µg/mL
MIC (A. baumannii EN017; Acinetobacter baumannii, EN017, A. baumannii EN017, Combination 2 (same mixed with thymidine)): 1 µg/mL
MIC (A. baumannii EN017; Acinetobacter baumannii, EN017, A. baumannii EN017, in AZT+trimethoprim+uridine combination): 1 µg/mL
MIC (A. baumannii EN017; Acinetobacter baumannii, EN017, A. baumannii EN017, in FdUrd+trimethoprim+uridine combination): 1 µg/mL
MIC (A. baumannii EN017; Acinetobacter baumannii, EN017, A. baumannii EN017, in didanosine+trimethoprim+uridine combination): 2 µg/mL
MIC (S. flexneri APV00907; [6]): 2 µg/mL
MIC (S. flexneri APV00907; [3]): >8 µg/mL
MIC (K. pneumoniae EN0233; [6]): 0.25 µg/mL
MIC (P. aeruginosa EN015; Pseudomonas aeruginosa, EN015, P. aeruginosa EN015, Combination 1 (AZT+trimethoprim+uridine)): 2 µg/mL
MIC (P. aeruginosa EN015; Pseudomonas aeruginosa, EN015, P. aeruginosa EN015, Combination 2 (same mixed with thymidine)): 2 µg/mL
MIC (P. aeruginosa EN015; Pseudomonas aeruginosa, EN015, P. aeruginosa EN015, in AZT+trimethoprim+uridine combination): 2 µg/mL
MIC (P. aeruginosa EN015; Pseudomonas aeruginosa, EN015, P. aeruginosa EN015, in FdUrd+trimethoprim+uridine combination): 2 µg/mL
MIC (P. aeruginosa EN015; Pseudomonas aeruginosa, EN015, P. aeruginosa EN015, in didanosine+trimethoprim+uridine combination): 2 µg/mL
MIC [1]: 0.125 µg/mL
MIC [2, 6]: 0.125 µg/mL
MIC [2, 3]: 0.125 µg/mL
MIC (E. aerogenes EN0461; [7]): 0.25 µg/mL
MIC (E. aerogenes EN0461; [6]): 0.25 µg/mL
MIC (S. sonnei APV00908; [6]): 0.03 µg/mL
MIC (S. sonnei APV00908; [3]): >8 µg/mL
MIC (E. coli EN013; Escherichia coli, EN013, E. coli EN013, Combination 1 (AZT+trimethoprim+uridine)): < 0.008 µg/mL
MIC (E. coli EN013; Escherichia coli, EN013, E. coli EN013, Combination 2 (same mixed with thymidine)): < 0.008 µg/mL
MIC (E. coli EN013; Escherichia coli, EN013, E. coli EN013, in AZT+trimethoprim+uridine combination): < 0.008 µg/mL
MIC (E. coli EN013; Escherichia coli, EN013, E. coli EN013, in FdUrd+trimethoprim+uridine combination): 0.032 µg/mL
MIC (E. coli EN013; Escherichia coli, EN013, E. coli EN013, in didanosine+trimethoprim+uridine combination): 0.032 µg/mL
MIC (K. pneumoniae EN0436; [6]): 0.125 µg/mL
MIC (K. pneumoniae EN0006; [6]): 0.25 µg/mL
MIC (K. pneumoniae EN0006; [3]): 1 µg/mL
MIC (K. pneumoniae EN0006; [5]): 1 µg/mL
MIC (A. baumannii EN0007; [6]): >4 µg/mL
MIC (A. baumannii EN0007; [3]): >8 µg/mL
MIC (A. baumannii EN0007; [5]): >8 µg/mL
MIC (E. coli EN012; [3]): 0.064 µg/mL
MIC (E. coli EN012; [5]): 0.125 µg/mL
MIC (S. epidermidis EN0456; [7]): 0.064 µg/mL
MIC (S. epidermidis EN0456; [5]): 0.125 µg/mL
MIC (E. coli B EN0458; [3]): 0.064 µg/mL
MIC (E. coli B EN0458; [5]): 0.064 µg/mL
MIC (K. pneumoniae EN0401; [3]): >8 µg/mL
MIC (K. pneumoniae EN0401; [5]): >8 µg/mL
MIC (K. oxytoca EN0392; [7]): 0.064 µg/mL
MIC (K. oxytoca EN0392; [3]): 0.25 µg/mL
MIC (K. pneumoniae EN0463; [7]): 0.125 µg/mL
MIC (K. pneumoniae EN0463; [4]): 0.25 µg/mL
MIC (K. pneumoniae EN011; Klebsiella pneumoniae, EN011, K. pneumoniae EN011, Combination 1 (AZT+trimethoprim+uridine)): 0.032 µg/mL
MIC (K. pneumoniae EN011; Klebsiella pneumoniae, EN011, K. pneumoniae EN011, Combination 2 (same mixed with thymidine)): 0.25 µg/mL
MIC (K. pneumoniae EN011; Klebsiella pneumoniae, EN011, K. pneumoniae EN011, in AZT+trimethoprim+uridine combination): 0.125 µg/mL
MIC (K. pneumoniae EN011; Klebsiella pneumoniae, EN011, K. pneumoniae EN011, in FdUrd+trimethoprim+uridine combination): 0.125 µg/mL
MIC (K. pneumoniae EN011; Klebsiella pneumoniae, EN011, K. pneumoniae EN011, in didanosine+trimethoprim+uridine combination): 0.25 µg/mL
MIC (K. pneumoniae EN010; [7]): 0.25 µg/mL
MIC (S. flexneri APV00906; [6]): 1 µg/mL
MIC (S. flexneri APV00906; [3]): >8 µg/mL
MIC (E. coli EN001; [7]): 0.064 µg/mL
MIC (E. coli EN001; [3]): 0.25 µg/mL
MIC (E. coli EN001; [5]): 0.25 µg/mL
MIC (E. coli ATCC 25922; ATCC25922, read-out: MIC against E. coli ATCC 25922, Plate C: TMP alone): 0.5 µg/mL (≈ 1.72 µM)
MIC (E. coli ATCC 25922; ATCC25922, read-out: MIC against E. coli ATCC 25922, Plate F: TMP with 2 μg/ml thymidine): 1 µg/mL (≈ 3.44 µM)
MIC (E. coli ATCC 25922; ATCC25922, read-out: MIC against E. coli ATCC 25922: TMP, Plate A: AZT + TMP with 50 μg/ml uridine): 0.06 µg/mL
MIC (E. coli ATCC 25922; ATCC25922, read-out: MIC against E. coli ATCC 25922: TMP, Plate D: AZT + TMP with 50 μg/ml uridine and 2 μg/ml thymidine): 0.5 µg/mL
MIC (K. pneumoniae EN006; [7]): 0.125 µg/mL
MIC (S. typhimurium EN0466; [7]): 0.064 µg/mL
MIC (S. typhimurium EN0466; [3]): 0.25 µg/mL
MIC (P. aeruginosa EN0004; [6]): >4 µg/mL
MIC (P. aeruginosa EN0004; [3]): >8 µg/mL
MIC (P. aeruginosa EN0004; [5]): >8 µg/mL
MIC (E. coli EN0001; [6]): 0.125 µg/mL
MIC (E. coli EN0001; [3]): 0.5 µg/mL
MIC (E. coli EN0001; [5]): 0.5 µg/mL
